Biological target: T1, CXCR4 receptors (Homo sapiens, UniProt P61073)
T1 construct: expressing endogenous CXCR4 receptors; endogenous in cells; host or cells: CCRF-CEM (human T lymphoblast cells)
Test: CXCR4-CEM calcium flux assay, antagonist mode (inhibition of SDF-1α-induced calcium flux)
Type: cell-based
Settings: inhibition of calcium flux induced by 4 nM SDF-1α in CCRF-CEM cells
Protocol: Exemplary compounds of the invention were tested for their ability to induce or inhibit calcium flux in CCRF-CEM cells. […] CXCR4-CEM Calcium Flux Assays. […] The cells were then equilibrated to room temperature for 30 minutes before assay. […] The serially diluted compounds were diluted to working concentrations with the same assay buffer to 0.5% DMSO. […] Activity of the compounds to induce calcium flux was monitored by FDSS in the “agonist mode” for 90 sec. For “antagonist mode” assessment, the cells are subsequently incubated for 25 min at room temperature. SDF-1α (R&D System Cat#350-NS/CF) was then added at a final concentration of 4 nM to stimulate the cells. Inhibition of SDF-1α-induced calcium flux was monitored by FDSS6000 for 90 sec. […] After correcting for background, EC50 values were determined. […] Inhibition data for the test compound over a range of concentrations was plotted as percentage inhibition of the test compound as compared to an internal control compound.

T1 sequence (P61073 whole entry): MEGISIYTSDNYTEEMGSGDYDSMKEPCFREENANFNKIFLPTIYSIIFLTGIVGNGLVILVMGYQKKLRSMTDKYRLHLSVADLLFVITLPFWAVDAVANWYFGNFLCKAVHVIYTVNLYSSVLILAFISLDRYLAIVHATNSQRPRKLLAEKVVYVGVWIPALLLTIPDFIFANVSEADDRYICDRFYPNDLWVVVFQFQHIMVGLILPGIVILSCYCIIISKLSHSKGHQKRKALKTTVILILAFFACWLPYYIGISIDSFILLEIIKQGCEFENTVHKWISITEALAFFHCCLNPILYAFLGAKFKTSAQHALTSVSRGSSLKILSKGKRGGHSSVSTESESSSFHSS

| IC50 [nM] | Compound |
| --- | --- |
| 11 | CN(Cc1cn2c(N3CCNC(c4ccccc4)C3)nccc2n1)[C@H]1CCCc2cccnc21 (single isomer, unassigned) [Example 78] |
| 56 | CN(Cc1cn2c(N3CCNC(c4ccccc4)C3)nccc2n1)[C@H]1CCCc2cccnc21 (single isomer, unassigned) [Example 79] |
| > 30000 | CN(Cc1cn2c(N3CCN4CCOCC4C3)nccc2n1)[C@H]1CCCc2cccnc21 (single isomer, unassigned) [Example 91] |
| 290 | CN(Cc1cn2c(N3CCN4CCOCC4C3)nccc2n1)[C@H]1CCCc2cccnc21 (single isomer, unassigned) [Example 92] |
| 24 | CN(Cc1cn2c(N3CC4CCCNC4C3)nccc2n1)[C@H]1CCCc2cccnc21 (single isomer, unassigned) [Example 95] |
| 220 | CN(Cc1cn2c(N3CC4CCCNC4C3)nccc2n1)[C@H]1CCCc2cccnc21 (single isomer, unassigned) [Example 96] |
| > 30000 | CN(Cc1cn2c(N3CCN(C(=O)OC(C)(C)C)CC3)nccc2n1)[C@H]1CCCc2cccnc21 [Example 3, (S)-tert-Butyl 4-(2-((methyl(5,6,7,8-tetrahydroquinolin-8-yl)amino)methyl)imidazo[1,2-c]pyrimidin-5-yl)piperazine-1-carboxylate] |
| 2.5 | CN1CCN(c2nccc3nc(CN(C)[C@H]4CCCc5cccnc54)cn23)CC1 [Example 4, (S)—N-Methyl-N-((5-(4-methylpiperazin-1-yl)imidazo[1,2-c]pyrimidin-2-yl)methyl)-5,6,7,8-tetrahydroquinolin-8-amine] |
| 8.1 | CN(Cc1cn2c(N3CCNCC3)nccc2n1)[C@H]1CCCc2cccnc21 [Example 5, (S)—N-Methyl-N-((5-(piperazin-1-yl)imidazo[1,2-c]pyrimidin-2-yl)methyl)-5,6,7,8-tetrahydroquinolin-8-amine] |
| 3.8 | CN(Cc1nc2ccnc(N3CCNCC3)n2c1CO)[C@H]1CCCc2cccnc21 [Example 6, (S)-(2-((Methyl(5,6,7,8-tetrahydroquinolin-8-yl)amino)methyl)-5-(piperazin-1-yl)imidazo[1,2-c]pyrimidin-3-yl)methanol] |
| 2.4 | CN1CCN(c2nccc3nc(CN(C)[C@H]4CCCc5cccnc54)c(CO)n23)CC1 [Example 7, (S)-(2-((Methyl(5,6,7,8-tetrahydroquinolin-8-yl)amino)methyl)-5-(4-methylpiperazin-1-yl)imidazo[1,2-c]pyrimidin-3-yl)methanol] |
| 89 | CSc1nccc2nc(CN(C)[C@H]3CCCc4cccnc43)cn12 [Example 8, (S)—N-Methyl-N-((5-(methylthio)imidazo[1,2-c]pyrimidin-2-yl)methyl)-5,6,7,8-tetrahydroquinolin-8-amine] |
| 25500 | CN(Cc1cn2c(N3CCOCC3)nccc2n1)[C@H]1CCCc2cccnc21 [Example 9, (S)—N-Methyl-N-((5-morpholinoimidazo[1,2-c]pyrimidin-2-yl)methyl)-5,6,7,8-tetrahydroquinolin-8-amine] |
| 8600 | CC(=O)N1CCN(c2nccc3nc(CN(C)[C@H]4CCCc5cccnc54)cn23)CC1 [Example 10, (S)-1-(4-(2-((Methyl(5,6,7,8-tetrahydroquinolin-8-yl)amino)methyl)imidazo[1,2-c]pyrimidin-5-yl)piperazin-1-yl)ethanone] |
| 13 | CN(Cc1cn2c(N3CCN(CCO)CC3)nccc2n1)[C@H]1CCCc2cccnc21 [Example 11, (S)-2-(4-(2-((Methyl(5,6,7,8-tetrahydroquinolin-8-yl)amino)methyl)imidazo[1,2-c]pyrimidin-5-yl)piperazin-1-yl)ethanol] |
| 54 | CN(Cc1cn2c(N3CCN(CCF)CC3)nccc2n1)[C@H]1CCCc2cccnc21 [Example 12, (S)—N-((5-(4-(2-Fluoroethyl)piperazin-1-yl)imidazo[1,2-c]pyrimidin-2-yl)methyl)-N-methyl-5,6,7,8-tetrahydroquinolin-8-amine] |
| 5670 | COC(=O)N1CCN(c2nccc3nc(CN(C)[C@H]4CCCc5cccnc54)cn23)CC1 [Example 13, (S)-Methyl 4-(2-((methyl(5,6,7,8-tetrahydroquinolin-8-yl)amino)methyl)imidazo[1,2-c]pyrimidin-5-yl)piperazine-1-carboxylate] |

| IC50 [nM] | Compound |
| --- | --- |
| 1230 | CCNC(=O)N1CCN(c2nccc3nc(CN(C)[C@H]4CCCc5cccnc54)cn23)CC1 [Example 14, (S)—N-ethyl-4-(2-((methyl(5,6,7,8-tetrahydroquinolin-8-yl)amino)methyl)imidazo[1,2-c]pyrimidin-5-yl)piperazine-1-carboxamide] |
| 750 | CN(Cc1cn2c(N3CCN(S(C)(=O)=O)CC3)nccc2n1)[C@H]1CCCc2cccnc21 [Example 15, (S)—N-Methyl-N-((5-(4-(methylsulfonyl)piperazin-1-yl)imidazo[1,2-c]pyrimidin-2-yl)methyl)-5,6,7,8-tetrahydroquinolin-8-amine] |
| 540 | CN(Cc1cn2c(N3CCN(CCN)CC3)nccc2n1)[C@H]1CCCc2cccnc21 [Example 16, (S)—N-((5-(4-(2-Aminoethyl)piperazin-1-yl)imidazo[1,2-c]pyrimidin-2-yl)methyl)-N-methyl-5,6,7,8-tetrahydroquinolin-8-amine] |
| 3.7 | [2H]C([2H])([2H])N1CCN(c2nccc3nc(CN(C)[C@H]4CCCc5cccnc54)cn23)CC1 [Example 17, (S)—N-Methyl-N-((5-(4-(methyl-d3)piperazin-1-yl)imidazo[1,2-c]pyrimidin-2-yl)methyl)-5,6,7,8-tetrahydroquinolin-8-amine] |
| 14 | CN(Cc1cn2c(N3CCN(CCc4ccccc4)CC3)nccc2n1)[C@H]1CCCc2cccnc21 [Example 18, (S)-N-methyl-N-({5-[4-(2-phenylethyl)piperazin-1-yl]imidazo[1,2-c]pyrimidin-2-yl}methyl)-5,6,7,8-tetrahydroquinolin-8-amine] |
| 14 | CC(C)CCN1CCN(c2nccc3nc(CN(C)[C@H]4CCCc5cccnc54)cn23)CC1 [Example 19, (S)-N-methyl-N-({5-[4-(3-methylbutyl)piperazin-1-yl]imidazo[1,2-c]pyrimidin-2-yl}methyl)-5,6,7,8-tetrahydroquinolin-8-amine] |
| 9.6 | CC(C)N1CCN(c2nccc3nc(CN(C)[C@H]4CCCc5cccnc54)cn23)CC1 [Example 20, (S)-N-methyl-N-({5-[4-(propan-2-yl)piperazin-1-yl]imidazo[1,2-c]pyrimidin-2-yl}methyl)-5,6,7,8-tetrahydroquinolin-8-amine] |
| 17 | CN(Cc1cn2c(N3CCN(CC4CC4)CC3)nccc2n1)[C@H]1CCCc2cccnc21 [Example 21, (8S)-N-({5-[4-(cyclopropylmethyl)piperazin-1-yl]imidazo[1,2-c]pyrimidin-2-yl}methyl)-N-methyl-5,6,7,8-tetrahydroquinolin-8-amine] |
| 42 | CC(C)CN1CCN(c2nccc3nc(CN(C)[C@H]4CCCc5cccnc54)cn23)CC1 [Example 22, (S)-N-methyl-N-({5-[4-(2-methylpropyl)piperazin-1-yl]imidazo[1,2-c]pyrimidin-2-yl}methyl)-5,6,7,8-tetrahydroquinolin-8-amine] |
| 770 | CN(Cc1cn2c(N3CCN(C4CCCCC4)CC3)nccc2n1)[C@H]1CCCc2cccnc21 [Example 23, (S)-N-{[5-(4-cyclohexylpiperazin-1-yl)imidazo[1,2-c]pyrimidin-2-yl]methyl}-N-methyl-5,6,7,8-tetrahydroquinolin-8-amine] |
| 11 | CN(Cc1cn2c(N3CCN(Cc4ccc(O)cc4)CC3)nccc2n1)[C@H]1CCCc2cccnc21 [Example 24, 4-({4-[2-({methyl[(S)-5,6,7,8-tetrahydroquinolin-8-yl]amino}methyl)imidazo[1,2-c]pyrimidin-5-yl]piperazin-1-yl}methyl)phenol] |
| 12 | CN(Cc1cn2c(N3CCN(Cc4cccc(Cl)c4)CC3)nccc2n1)[C@H]1CCCc2cccnc21 [Example 25, (S)-N-[(5-{4-[(3-chlorophenyl)methyl]piperazin-1-yl}imidazo[1,2-c]pyrimidin-2-yl)methyl]-N-methyl-5,6,7,8-tetrahydroquinolin-8-amine] |
| 14 | CN(Cc1cn2c(N3CCN(Cc4cccs4)CC3)nccc2n1)[C@H]1CCCc2cccnc21 [Example 26, (S)-N-methyl-N-({5-[4-(thiophen-2-ylmethyl)piperazin-1-yl]imidazo[1,2-c]pyrimidin-2-yl}methyl)-5,6,7,8-tetrahydroquinolin-8-amine] |
| 75 | CN(Cc1cn2c(N3CCN(Cc4cncn4C)CC3)nccc2n1)[C@H]1CCCc2cccnc21 [Example 27, (S)-N-methyl-N-[(5-{4-[(1-methyl-1H-imidazol-5-yl)methyl]piperazin-1-yl}imidazo[1,2-c]pyrimidin-2-yl)methyl]-5,6,7,8-tetrahydroquinolin-8-amine] |
| 11 | CN(Cc1cn2c(N3CCN(Cc4cccnc4)CC3)nccc2n1)[C@H]1CCCc2cccnc21 [Example 28] |
| 77 | CN(Cc1cn2c(N3CCN(Cc4ccncc4)CC3)nccc2n1)[C@H]1CCCc2cccnc21 [Example 29, (S)-N-methyl-N-({5-[4-(pyridin-4-ylmethyl)piperazin-1-yl]imidazo[1,2-c]pyrimidin-2-yl}methyl)-5,6,7,8-tetrahydroquinolin-8-amine] |
| 190 | CN(Cc1cn2c(N3CCN(C4CCC4)CC3)nccc2n1)[C@H]1CCCc2cccnc21 [Example 30, (S)-N-{[5-(4-cyclobutylpiperazin-1-yl)imidazo[1,2-c]pyrimidin-2-yl]methyl}-N-methyl-5,6,7,8-tetrahydroquinolin-8-amine] |

— patent US10450318B2, “CXCR4 receptor antagonists” (BRISTOL-MYERS SQUIBB COMPANY, priority 2015, dated 2019)
